In patent publication US5547935A (Chiron Corporation, priority 1994, dated 1996):
Values belong to the substance of their own block, whether it stands above or below them.

What was measured:
[1] = EGF biological activity, test not specified
Description: C. […] EGF-D represents the 52-amino acid sequence obtained by removing the C-terminal arg, while EGF-B corresponds to EGF-D wherein the C-terminal arg-leu has been removed. EGF-C appears to be EGF-D in which Met21 has been oxidized, while EGF-A appears to be EGF-B with Met21 oxidized. EGF-D is reported to be stable when stored as a lyophilized powder.
EGF may also be altered by adding an N-terminal extension. EGF-flag (.phi.EGF) derivatives have the additional sequence […], which permits rapid purification of peptides by affinity chromatography on anti-flag MAb columns (International Biotechnology Inc.).

[2] = system: Human foreskin fibroblasts; experiment: Mitogenicity: 3H-thymidine incorporation; format: cell-based
Experimental: Mitogenicity was assayed substantially following the method described by D. J. Knauer et al, J Biol Chem (1984) 259:5623-31.
Human foreskin fibroblasts were obtained and frozen at the thirteenth passage. Thawed cells are trypsinized, pelleted, and resuspended in a medium containing DMEM, 5% FBS, 1 mM sodium pyruvate, 300 μg/mL L-glutamine, 100 U/mL penicillin, and 100 μg/mL streptomycin. The cells are counted using a hemocytometer and 0.4% trypan blue. The cell concentration is adjusted to 1×10^-5 cells/mL using the same medium, and dispensed onto microtiter plates (100 μL/well). The plates are incubated for 5 days in a tissue culture incubator.
EGF muteins prepared in Example 1 and native sequence EGF are dissolved to make 100 μg/mL solutions. These solutions are used to make serial dilutions of 20, 10, 5, 2.5, 1.25, 0.625, 0.3125, 0.15625, 0.078125, 0.0390625, 0.0195, and 0.00975 ng/mL. Ten μL of each dilution is added to a microtiter plate well, and the plates returned to the incubator and incubated at 37° C. for 18 hours. The cells are then pulsed with ^3 H-thymidine (^3 H-T), by adding 10 μL of ^3 H-T (100 μCi/mL) to each well, and incubating for 24 hours. The ^3 H-T is then expelled, and the plates rinsed twice with PBS. To fix the cells, the plates are then incubated twice with 5% trichloroacetic acid (TCA) for 15 minutes at room temperature, followed by incubation twice with 100% MeOH. The plates are then air-dried.
The well contents are then solubilized using 0.3 N NaOH (50 μL/well) for 30 minutes, and transferred to scintillation vials. Scintillation fluid (Ready-Solv EP, 4 mL) is then added to each vial, and the vials counted for 1 min with a 0-1,000 (^3 H) window in a Beckman LS3801 counter.

[3] = target: T1, EGF receptor on fixed A431 cells (Homo sapiens, UniProt P00533); experiment: Receptor affinity: binding to fixed A431 cells; details: 1 nM, 2 hr at 37° C.
T1 construct: Confluent A43 1 cells were fixed in 96-well microtiter plates using 0.05% formaldehyde; endogenous in cells; host or cells: A431 cells, formaldehyde-fixed
Experimental: Confluent A43 1 cells were fixed in 96-well microtiter plates using 0.05% formaldehyde for 10 min at room temperature, then washed 3× with 200 μL PBS with 0.1% bovine serum albumin (BSA).
The wells were then washed 3× with 200 μL of PBS/0.1% BSA, detached, and counted in a gamma counter.

[4] = forms isolated from recombinant yeast culture; cited from earlier work
[5] = stored as a lyophilized powder; cited from earlier work

Substance: .phi.EGF-E12: flag-extended EGF mutein with Glu for Gly12 (NSDSECPLSHDEYCLHDGVCMYIEALDKYACNCVVGYIGERCQYRDLKWWELR; not fully specified; Epidermal growth factor N-terminal FLAG extension; UniProt P01133 971-1023, looked up, variant G12E)
biological activity of EGF-flag derivatives [1]: biologically active

Affinity [3]: 154 percentage of control (EGF)
Substance: .phi.EGF-Q12: flag-extended EGF mutein with Gln at position 12 (NSDSECPLSHDQYCLHDGVCMYIEALDKYACNCVVGYIGERCQYRDLKWWELR; not fully specified; Epidermal growth factor N-terminal FLAG extension; UniProt P01133 971-1023, looked up, variant G12Q)
Mitogenicity [2]: 286 percentage of control (EGF)

Affinity [3]: 73 percentage of control (EGF)
Substance: .phi.EGF-W13: flag-extended EGF mutein with Trp for Tyr13 (NSDSECPLSHDGWCLHDGVCMYIEALDKYACNCVVGYIGERCQYRDLKWWELR; not fully specified; Epidermal growth factor N-terminal FLAG extension; UniProt P01133 971-1023, looked up, variant Y13W)
Mitogenicity [2]: 216 percentage of control (EGF) | biological activity of EGF-flag derivatives [1]: biologically active

Substance: EFG: wild-type human epidermal growth factor, 53-amino acid protein; control of Table 1 [reference compound]
Mitogenicity [2]: 100 percentage of control (EGF)

Substance: EGF-A15: EGF mutein with Ala at position 15
Mitogenicity [2]: 3 percentage of control (EGF)

Substance: EGF-A41: EGF mutein with Ala at position 41
Mitogenicity [2]: < 0.4 percentage of control (EGF)

Substance: EGF-A43: EGF mutein with Ala at position 43 (Glu43 replaced)
Mitogenicity [2]: 63 percentage of control (EGF)

Substance: EGF-B: EGF-D wherein the C-terminal arg-leu has been removed (NSDSECPLSHDGYCLHDGVCMYIEALDKYACNCVVGYIGERCQYRDLKWWE; not fully specified; Epidermal growth factor; UniProt P01133 971-1021, looked up, fragment)
EGF activity [4]: full EGF activity

Substance: EGF-D: 52-amino acid sequence obtained by removing the C-terminal arg of EGF (NSDSECPLSHDGYCLHDGVCMYIEALDKYACNCVVGYIGERCQYRDLKWWEL; not fully specified; Epidermal growth factor; UniProt P01133 971-1022, looked up, fragment)
stability on storage [5]: stable | EGF activity [4]: full EGF activity
